Columns and labels:
[1] = biological target: T1, Caspase-3 (Homo sapiens) (UniProt P42574); assay: Inhibition of recombinant CPP32 (unknown origin) assessed as ratio of irreversible rate constant K3 to dissociation constant of the reversible binding step Ki pre-incubated for 60 mins with Acetyl-Tyr-Val-Ala-Asp-amino-4-methylcoumarin substrate followed by enzyme addition by fluorescence based assay
T1 sequence (whole entry): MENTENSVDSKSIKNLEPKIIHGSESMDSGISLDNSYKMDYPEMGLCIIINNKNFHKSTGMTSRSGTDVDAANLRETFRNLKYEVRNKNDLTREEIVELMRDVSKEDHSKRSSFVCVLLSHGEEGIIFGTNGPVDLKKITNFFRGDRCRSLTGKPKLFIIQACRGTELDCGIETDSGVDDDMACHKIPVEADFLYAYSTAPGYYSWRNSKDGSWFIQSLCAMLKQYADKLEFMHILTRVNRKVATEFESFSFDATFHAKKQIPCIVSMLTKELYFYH

[2] = biological target: Caspase-8 (Homo sapiens) (UniProt Q14790); assay: Inhibition of recombinant MCH5 (unknown origin) assessed as ratio of irreversible rate constant K3 to dissociation constant of the reversible binding step Ki pre-incubated for 60 mins with Acetyl-Tyr-Val-Ala-Asp-amino-4-methylcoumarin substrate followed by enzyme addition by fluorescence based assay
[3] = biological target: T2, Caspase-6 (Homo sapiens) (UniProt P55212); assay: Inhibition of recombinant MCH2 (unknown origin) assessed as ratio of irreversible rate constant K3 to dissociation constant of the reversible binding step Ki pre-incubated for 60 mins with Acetyl-Tyr-Val-Ala-Asp-amino-4-methylcoumarin substrate followed by enzyme addition by fluorescence based assay
T2 sequence (whole entry): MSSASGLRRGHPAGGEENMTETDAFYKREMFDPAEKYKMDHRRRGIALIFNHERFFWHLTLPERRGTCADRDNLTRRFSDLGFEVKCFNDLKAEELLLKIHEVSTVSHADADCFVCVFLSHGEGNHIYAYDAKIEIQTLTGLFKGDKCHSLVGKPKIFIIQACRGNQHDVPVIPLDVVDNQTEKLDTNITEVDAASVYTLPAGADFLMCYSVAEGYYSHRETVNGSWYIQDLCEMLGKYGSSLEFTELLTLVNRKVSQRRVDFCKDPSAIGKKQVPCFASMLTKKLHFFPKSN

[4] = biological target: T3, Caspase-1 (Mus musculus) (UniProt P29452); assay: Inhibition of mouse recombinant ICE assessed as ratio of irreversible rate constant K3 to dissociation constant of the reversible binding step Ki pre-incubated for 60 mins with Acetyl-Tyr-Val-Ala-Asp-amino-4-methylcoumarin substrate followed by enzyme addition by fluorescence based assay
T3 sequence (whole entry): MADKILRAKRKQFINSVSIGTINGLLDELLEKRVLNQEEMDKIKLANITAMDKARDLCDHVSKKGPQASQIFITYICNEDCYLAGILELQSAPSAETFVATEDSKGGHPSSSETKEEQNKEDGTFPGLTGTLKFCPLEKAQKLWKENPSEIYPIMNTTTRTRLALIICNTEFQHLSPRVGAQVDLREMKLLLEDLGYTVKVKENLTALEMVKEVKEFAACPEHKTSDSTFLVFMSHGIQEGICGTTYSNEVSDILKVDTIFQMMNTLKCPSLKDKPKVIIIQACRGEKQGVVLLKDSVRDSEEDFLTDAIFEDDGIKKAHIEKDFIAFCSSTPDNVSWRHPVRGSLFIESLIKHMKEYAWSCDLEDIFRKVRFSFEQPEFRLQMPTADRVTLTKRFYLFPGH

Sequence of Caspase-8 (Homo sapiens) (Q14790 217-374 limits assumed): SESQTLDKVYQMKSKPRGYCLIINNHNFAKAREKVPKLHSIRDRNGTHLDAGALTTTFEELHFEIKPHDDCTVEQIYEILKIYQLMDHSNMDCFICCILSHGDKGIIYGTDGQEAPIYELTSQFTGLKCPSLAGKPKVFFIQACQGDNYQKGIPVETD
Sequence of Caspase-8 (Homo sapiens) (Q14790 385-479 limits assumed): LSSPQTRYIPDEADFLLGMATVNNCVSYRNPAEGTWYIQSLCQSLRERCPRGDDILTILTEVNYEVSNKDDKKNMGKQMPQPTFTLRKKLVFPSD

Row | Structure (SMILES) | Ratio [1] [M⁻¹ s⁻¹] | Ratio [2] [M⁻¹ s⁻¹] | Ratio [3] [M⁻¹ s⁻¹] | Ratio [4] [M⁻¹ s⁻¹]
1 | C[C@H](NC(=O)C(=O)Nc1ccccc1C(C)(C)C)C(=O)N[C@@H](CC(=O)O)C(=O)COP(=O)(c1ccccc1)c1ccccc1 | 327000 to 395000 | 282000 to 589000 | 275000 to 484000 | 159000 to 625000
2 | C[C@H](NC(=O)C(=O)Nc1ccccc1C(C)(C)C)C(=O)N[C@@H](CC(=O)O)C(=O)COC(=O)c1c(Cl)cccc1Cl | 62900 to 142000 | 30200 to 39100 | 6960 to 191000 | 43300 to 537000
3 | C[C@H](NC(=O)C(=O)NCc1ccccc1)C(=O)N[C@@H](CC(=O)O)C(=O)COc1c(F)c(F)cc(F)c1F | 54300 | 23100 | 42800 | 13900
4 | CC(C)[C@H](NC(=O)C(=O)NCCc1ccccc1)C(=O)N[C@@H](CC(=O)O)C(=O)COc1c(F)c(F)cc(F)c1F | 13400 | 16600 | 12600 | 77100
5 | CC(C)[C@H](NC(=O)C(=O)Nc1ccccn1)C(=O)N[C@@H](CC(=O)O)C(=O)COc1c(F)c(F)cc(F)c1F | 9850 | 19500 | 11600 | 36000
6 | CC(C)[C@H](NC(=O)C(=O)NC(c1ccccc1)c1ccccc1)C(=O)N[C@@H](CC(=O)O)C(=O)COc1c(F)c(F)cc(F)c1F | 5380 | 48600 | 1430 | 201000
7 | C[C@H](NC(=O)C(=O)Nc1cc(C(C)(C)C)ccc1C(C)(C)C)C(=O)N[C@@H](CC(=O)O)C(=O)COP(=O)(c1ccccc1)c1ccccc1 | 104000 | 1.34e+06 | 308000 | 211000
8 | CC(C)[C@H](NC(=O)C(=O)Nc1c(F)c(F)nc(F)c1F)C(=O)N[C@@H](CC(=O)O)C(=O)COc1c(F)c(F)cc(F)c1F | 153000 | 389000 | 170000 | 1.22e+06
9 | CC(C)[C@H](NC(=O)C(=O)Nc1nc2ccccc2[nH]1)C(=O)N[C@@H](CC(=O)O)C(=O)COc1c(F)c(F)cc(F)c1F | 3130 | 20800 | 1840 | 27400
10 | C[C@H](NC(=O)C(=O)Nc1ccccc1Cl)C(=O)N[C@@H](CC(=O)O)C(=O)COC(=O)c1c(Cl)cccc1Cl | 323000 to 842000 | 396000 to 1.63e+06 | 281000 to 745000 | 278000 to 1.94e+06
11 | CC(C)[C@H](NC(=O)C(=O)Nc1cnccn1)C(=O)N[C@@H](CC(=O)O)C(=O)COc1c(F)c(F)cc(F)c1F | – | 1.83e+06 | 175000 | 2.57e+06
12 | CC(C)[C@H](NC(=O)C(=O)Nc1cccc2ccccc12)C(=O)N[C@@H](CC(=O)O)C(=O)COc1cccc2ccccc12 | 180000 | 177000 | 83700 | 254000
13 | CC(C)[C@H](NC(=O)C(=O)Nc1cccc2ccccc12)C(=O)N[C@@H](CC(=O)O)C(=O)COc1c(-c2ccccc2)oc2ccccc2c1=O | 43600 | 0 | 0 | 82100
14 | C[C@H](NC(=O)C(=O)Nc1ccccc1-c1ccccc1)C(=O)N[C@@H](CC(=O)O)C(=O)COc1ccccc1F | 55600 | 37800 | 35000 | 167000
15 | CC(C)[C@H](NC(=O)C(=O)NC1CCCc2ccccc21)C(=O)N[C@@H](CC(=O)O)C(=O)COc1c(F)c(F)cc(F)c1F (some centres not stated) | 98600 | 456000 | 160000 | 2.32e+06
16 | C[C@H](NC(=O)C(=O)Nc1cc(C(C)(C)C)ccc1C(C)(C)C)C(=O)N[C@@H](CC(=O)O)C(=O)COc1c(F)c(F)cc(F)c1F | 221000 | 248000 | 192000 | 195000
17 | CC(C)[C@H](NC(=O)C(=O)Nc1ccccc1-c1ccccc1)C(=O)N[C@@H](CC(=O)O)C(=O)COc1c(F)c(F)cc(F)c1F | 25400 | 65300 | 31700 | 127000

Row | Structure (SMILES) | Ratio [1] [M⁻¹ s⁻¹] | Ratio [2] [M⁻¹ s⁻¹] | Ratio [3] [M⁻¹ s⁻¹] | Ratio [4] [M⁻¹ s⁻¹]
18 | CC(C)[C@H](NC(=O)C(=O)Nc1cccc2ccccc12)C(=O)N[C@@H](CC(=O)O)C(=O)COC(=O)c1c(Cl)cccc1Cl | – | – | 234000 | 1.05e+06
19 | C[C@H](NC(=O)C(=O)NCc1ccccc1)C(=O)N[C@@H](CC(=O)O)C(=O)COC(=O)c1c(Cl)cccc1Cl | 600000 | 203000 | 244000 | 59100
20 | C[C@H](NC(=O)C(=O)Nc1ccccc1F)C(=O)N[C@@H](CC(=O)O)C(=O)COc1c(F)c(F)cc(F)c1F | 478000 | 170000 | 212000 | 339000
21 | C[C@H](NC(=O)C(=O)Nc1ccc(F)cc1)C(=O)N[C@@H](CC(=O)O)C(=O)COP(=O)(c1ccccc1)c1ccccc1 | 268000 | 2.3e+06 | 424000 | 956000
22 | C[C@H](NC(=O)C(=O)Nc1ccccc1I)C(=O)N[C@@H](CC(=O)O)C(=O)COP(=O)(c1ccccc1)c1ccccc1 | 78300 | 46300 | 66200 | 36300
23 | CC(C)[C@H](NC(=O)C(=O)Nc1ccc(F)cc1)C(=O)N[C@@H](CC(=O)O)C(=O)COc1c(F)c(F)cc(F)c1F | 36300 | 338000 | 121000 | 906000
24 | C[C@H](NC(=O)C(=O)Nc1cc(C(C)(C)C)ccc1C(C)(C)C)C(=O)N[C@@H](CC(=O)O)C(=O)COC(=O)c1c(Cl)cccc1Cl | 189000 | 306000 | 146000 | 289000
25 | C[C@H](NC(=O)C(=O)Nc1ccccc1-c1ccccc1)C(=O)N[C@@H](CC(=O)O)C(=O)COC(=O)c1c(Cl)cccc1Cl | 388000 | 125000 | 219000 | 259000
26 | C[C@H](NC(=O)C(=O)Nc1cccc2c1CCCC2)C(=O)N[C@@H](CC(=O)O)C(=O)COC(=O)c1c(Cl)cccc1Cl | 149000 to 260000 | 21200 to 1.92e+06 | 126000 to 264000 | 16900 to 1.76e+07
27 | CC(C)[C@H](NC(=O)C(=O)Nc1ccccc1I)C(=O)N[C@@H](CC(=O)O)C(=O)COc1c(F)c(F)cc(F)c1F | 42300 | 1.03e+06 | 137000 | 1.26e+06
28 | C[C@H](NC(=O)C(=O)NCCc1ccccc1)C(=O)N[C@@H](CC(=O)O)C(=O)COP(=O)(c1ccccc1)c1ccccc1 | 169000 | 667000 | 131000 | 1.23e+06
29 | CC(C)[C@H](NC(=O)C(=O)Nc1ccccc1)C(=O)N[C@@H](CC(=O)O)C(=O)COc1c(F)c(F)cc(F)c1F | 36000 | 598000 | 25500 | 1.49e+06
30 | CC(C)[C@H](NC(=O)C(=O)NCc1ccccc1)C(=O)N[C@@H](CC(=O)O)C(=O)COc1c(F)c(F)cc(F)c1F | 21000 | 472000 | 16600 | 1.8e+06
31 | COc1ccccc1NC(=O)C(=O)N[C@H](C(=O)N[C@@H](CC(=O)O)C(=O)COc1c(F)c(F)cc(F)c1F)C(C)C | 10800 | 2.68e+06 | 61500 | 2.07e+06
32 | CC(C)[C@H](NC(=O)C(=O)Nc1ccccc1C(C)(C)C)C(=O)N[C@@H](CC(=O)O)C(=O)COc1c(F)c(F)cc(F)c1F | 27700 | 1.16e+06 | 112000 | 2.05e+06
33 | CC(C)[C@H](NC(=O)C(=O)Nc1cccc2ccccc12)C(=O)N[C@@H](CC(=O)O)C(=O)COc1c(F)cc(F)cc1F | – | – | 37400 | 879000
